Earlier results as cited in patent publication US8314091B2, “N-benzyl,N'-arylcarbonylpiperazine derivatives” (MSD OSS B.V., priority 2007, dated 2012).

Assays:
[1] = test system: vascular smooth muscle cell proliferation and neointima formation; conditions: following balloon injury, in vitro and in vivo
β-amyloid = conditions: in vivo
[2] = test system: tumours in an animal model of prostate cancer

Structure (SMILES): O=S(=O)(c1ccccc1)N(CC(F)(F)F)c1ccc(C(O)(C(F)(F)F)C(F)(F)F)cc1 [Example T0901317]
- effect on vascular smooth muscle cell proliferation and neointima formation [1]: inhibit vascular smooth muscle cell proliferation and neointima formation
- deposition of β-amyloid (β-amyloid): lower deposition of β-amyloid
- memory (β-amyloid): improve memory
- effect on progression of tumours [2]: delayed progression of tumours
